Article PMC11892739, “Site-specific molecular glues for the 14-3-3/Tau pS214 protein–protein interaction via reversible covalent imine tethering” (RSC Medicinal Chemistry, 2025)
Square brackets hold non-standard residues; d marks the D form. Peptide text beside a SMILES is read from it. pS = N[C@@H](COP(=O)(O)O)C(=O)O

Molecular target: T1, 14-3-3ζ/Tau pS2 peptide interaction (Homo sapiens, UniProt P63104)
T1 construct: made in house; host or cells: NiCo21 (DE3) E. coli
T1 sequence (P63104 1-245): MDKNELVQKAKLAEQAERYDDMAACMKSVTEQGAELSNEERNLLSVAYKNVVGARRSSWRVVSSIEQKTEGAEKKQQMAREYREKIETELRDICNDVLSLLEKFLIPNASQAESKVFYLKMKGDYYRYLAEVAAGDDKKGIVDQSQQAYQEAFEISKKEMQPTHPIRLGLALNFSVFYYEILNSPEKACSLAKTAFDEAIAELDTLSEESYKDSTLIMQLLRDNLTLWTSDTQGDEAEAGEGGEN
Assay: Fluorescence anisotropy compound titration to preformed 14-3-3ζ/Tau pS2 peptide complex
Type: binding
Details: FA
Experimental: With the compound library constructed, we sought to screen the stabilizing activity of the imidazole analogs for the 14-3-3ζ/Tau pS2 peptide interaction. In this regard, a fluorescence anisotropy (FA) assay was performed where each individual compound was titrated against a fixed concentration of 14-3-3ζ (100 nM) and fluorescein-labelled Tau pS2 peptide (10 nM; Fig. 3a and b, ESI ^† Fig. S4 and S5, Table 1, ESI ^† Table S1). Thereby, the fixed 14-3-3ζ concentration was based on the EC20 value of the binary complex formation to enable a sufficient dynamic window for ternary complex formation. […] For each compound dose–response curve, the background signal (titration without 14-3-3ζ) was subtracted, to exclude possible false positive results. […]
chromatography (HisTrap high performance cartridges, Cytiva). […] Dialyzed protein was concentrated to ∼40 mg/mL, analyzed by Q -Tof LC/MS, and aliquots were flash -frozen for storage at −80 °C. […] Fractions containing the 14 -3-3 protein were pooled and concentrated to ∼60 mg/mL, analyzed Q -Tof LC/MS, and aliquots were flash -frozen for storage at −80°C.
(§1) Fluorescence Anisotropy – compound titration
Compound titration assays were performed by titrating compounds (in 1% DMSO, starting at 500 μM) in a 2-fold dilution series to preformed complex of fluorescein -labeled Tau pS2 (10 nM) and 14 -3-3ζ (100 nM) (which represents approximately 20% bound Tau pS2 peptide to 14 -3-3ζ to allow further complex formation by addition of fragments 1) in FA buffer (10 mM HEPES pH 7.4, 150 mM NaCl, 50 µM TCEP, 0.1% (v/v) Tween20, 0.1% (w/v) BSA). […] Measurements were performed directly after plate preparation, using a Tecan SPARK plate reader at room temperature ( λex: 485±20 nm; λem: 535±25 nm; mirror: automatic; flashes: 30; settle time: 1 ms; gain: optimal; Z -position: calculated from well). […] All data were analyzed using GraphPad Prism (10.0.1) and fitted with a four -parameter logistic model (4PL) to determine binding affinities (dissociation constant, KD). […]

| SMILES | PPI stabilizing activity (in words) |
| --- | --- |
| O=Cc1ccc(-n2ccnc2-c2cccc(O)c2)cc1Br [Compound 9] | slightly inhibited 14-3-3ζ/Tau pS2 peptide complex formation |
| O=Cc1ccc(-n2ccnc2-c2ccc(OCCO)cc2)cc1Br [Compound 24] | did not show an improvement in PPI stabilization |
| CC(C)c1ccc(-c2nccn2-c2ccc(C=O)c(Br)c2)cc1 [Compound 19] | completely diminished PPI stabilization |

Molecular target: T1, 14-3-3ζ/Tau pS2 peptide interaction
Assay: Fluorescence anisotropy 14-3-3ζ titration in the presence of 250 μM compound and Tau pS2 peptide
Type: binding
Details: 250 μM compound; apparent KD compared to internal DMSO reference
Experimental: On the other hand, the PPI stabilizing potency of series 1 compounds was highly dependent on the position and chemical property of the substituent. […] The compound screen for these compounds was further complemented by 14-3-3ζ titration assays in the presence of a constant concentration of compound (250 μM) and Tau pS2 peptide (10 nM) (Fig. 3c, ESI ^† Fig. S6).
This statement is strengthened by the diminished stabilizing activity when shifting the more polar chloro substituent from the para (14) to the ortho (5) to the meta position (8), respectively. […]
chromatography (HisTrap high performance cartridges, Cytiva). Typically two 5 mL columns were used for a 2 L culture in which the lysate was loaded on the column, washed with 10 CV wash buffer (50 mM Hepes, pH 8.0, 300 mM NaCl, 25 mM imidazole, 2 mM βME), and eluted with several fractions (2-4 CV) of elution buffer (50 mM Hepes, pH 8.0, 300 mM NaCl, 250 mM imidazole, 2 mM βME). Fractions containing the 14-3-3 protein were combined and dialyzed into 25 mM HEPES pH 8.0, 200 mM NaCl, 10 mM MgCl2, 2 mM βME, followed by dialysis into 25 mM HEPES, 100 mM NaCl, 10 mM MgCl2, 500 μM TCEP (adjusted to pH 8.0). Dialyzed protein was concentrated to ∼40 mg/mL, analyzed by Q -Tof LC/MS, and aliquots were flash -frozen for storage at −80 °C. For 14 -3-3σ∆c, 1 mg TEV per 100 mg purified protein was added to the dialysis to remove the purification tag. The cleaved sample was then again loaded on a 10 mL Ni-NTA column to separate the cleaved product from the expression tag and residual uncleaved protein. The flowthrough was loade d on a Superdex 75 pg 16/60 size exclusion column (GE Life Sciences) using 25 mM HEPES, 100 mM NaCl, 10 mM MgCl2, 500 μM TCEP (adjusted to pH = 8.0) as running buffer. Fractions containing the 14 -3-3 protein were pooled and concentrated to ∼60 mg/mL, analyzed Q -Tof LC/MS, and aliquots were flash -frozen for storage at −80°C.
as §1
Compound titration assays were performed by titrating compounds (in 1% DMSO, starting at 500 μM) in a 2-fold dilution series to preformed complex of fluorescein -labeled Tau pS2 (10 nM) and 14 -3-3ζ (100 nM) (which represents approximately 20% bound Tau pS2 peptide to 14 -3-3ζ to allow further complex formation by addition of fragments 1) in FA buffer (10 mM HEPES pH 7.4, 150 mM NaCl, 50 µM TCEP, 0.1% (v/v) Tween20, 0.1% (w/v) BSA). Dilution series were made in polystyrene low -volume 384 -well plates (Corning #4514, Black Round Bottom). Measurements were performed directly after plate preparation, using a Tecan SPARK plate reader at room temperature ( λex: 485±20 nm; λem: 535±25 nm; mirror: automatic; flashes: 30; settle time: 1 ms; gain: optimal; Z -position: calculated from well). Wells containing only fluorescein labelled peptide were used to set as G -factor calibrated from these wells. All data were analyzed using GraphPad Prism (10.0.1) and fitted with a four -parameter logistic model (4PL) to determine binding affinities (dissociation constant, KD). All data shown is background corrected for the signal without 14 -3-3ζ and the mean and standard deviation of technical duplicate is plotted, assay performed in a scientific duplicate for hit compounds.
Fluorescence Anisotropy – 14-3-3 titrations in the presence of compound To characterize the affinity of the Tau peptides for 14-3-3 in the presence of compound, 14-3-3ζ or γ was titrated in a 2-fold dilution series starting at 400 (for the 14-3-3ζ titrations to Tau pS2) or 800 (for the 14-3-3γ titrations to Tau pS214 or pS324) µM. 14-3-3 was added to 10 nM of fluorescein-labeled peptide (Tau pS2, Tau pS214 or Tau pS324) in the presence of 250 µM compound (1% DMSO). The assays were performed in a similar way as described above. Data shown is the average and standard deviation of a technical duplicate, top plateau corrected where needed, assay performed in a scientific duplicate.
Fluorescence Anisotropy – peptide screen […]

| SMILES | SF250μM (stabilization factor) |
| --- | --- |
| O=Cc1ccc(-n2ccnc2-c2ccccc2)cc1I [Compound 26] | 1.8 |
| O=Cc1ccc(-n2ccnc2-c2ccccc2)cc1Cl [Compound 25] | 15 |
| O=Cc1ccc(-n2ccnc2-c2ccccc2Cl)cc1Br [Compound 5] | 7.5 |
| O=Cc1ccc(-n2ccnc2-c2ccccc2)cc1C(F)(F)F [Compound 27] | 6.1 |
| O=Cc1ccc(-n2ccnc2-c2ccc(N3CCOCC3)cc2)cc1Br [Compound 23] | 16 |
| O=Cc1ccc(-n2ccnc2-c2cccc3cccnc23)cc1Br [Compound 33] | 4.3 |
| COc1ccc(-c2nc3ccccc3n2-c2ccc(C=O)c(Br)c2)cc1 [Compound 29] | 8.3 |
| O=Cc1ccc(-n2c(-c3cccnc3)nc3ccccc32)cc1Br [Compound 2] | 20 |
| O=Cc1ccc(-n2c(-c3ccc(OCCO)cc3)nc3ccccc32)cc1Br [Compound 31] | 19 |
| Cc1ccccc1-c1nccn1-c1ccc(C=O)c(Br)c1 [Compound 3] | 11 |

Same assay, conditions: screening hits

| SMILES | stabilization of the 14-3-3ζ/Tau pS2 peptide complex [fold] |
| --- | --- |
| O=Cc1ccc(-n2c(-c3cccnc3)nc3ccccc32)cc1Br [Compound 2] | 20 |

Molecular target: 14-3-3ζ
Assay: not given
Parameters: method as in doi:10.1101/2024.03.15.585148
Details: FA assay; read-out: KD of monovalent Tau peptide to 14-3-3ζ; cited from earlier work

| SMILES | Kd [µM] |
| --- | --- |
| CC(=O)N[C@@H](CO)C(=O)N[C@@H](CCCNC(=N)N)C(=O)N[C@H](C(=O)N1CCC[C@H]1C(=O)N[C@@H](COP(=O)(O)O)C(=O)N[C@@H](CC(C)C)C(=O)N1CCC[C@H]1C(=O)N[C@H](C(=O)N1CCC[C@H]1C(=O)N1CCC[C@H]1C(=O)N[C@H](C(=O)N[C@@H](CCCNC(=N)N)C(=O)N[C@@H](CCC(=O)O)C(=O)O)[C@@H](C)O)[C@@H](C)O)[C@@H](C)O [Tau pS214] (Ac-SRTP[pS]LPTPPTRE-OH; C-terminus assumed) | > 100 |
| CC[C@H](C)[C@H](NC(=O)[C@H](CC(N)=O)NC(=O)CNC(=O)[C@H](CC(C)C)NC(=O)[C@H](COP(=O)(O)O)NC(=O)CNC(=O)[C@H](CS)NC(=O)[C@H](CCCCN)NC(=O)[C@H](CO)NC(=O)[C@@H](NC(=O)[C@@H](NC(C)=O)C(C)C)[C@@H](C)O)C(=O)N[C@@H](Cc1c[nH]cn1)C(=O)N[C@@H](Cc1c[nH]cn1)C(=O)N[C@@H](CCCCN)C(=O)O [Tau pS324] (Ac-VTSKCG[pS]LGNIHHK-OH; C-terminus assumed) | > 100 |
